Experimental data from patent US20230285598A1, “SULFOXONIUM YLIDE DERIVATIVES AS PROBES FOR CYSTEINE PROTEASE” (Takeda Pharmaceutical Company Limited, priority 2018, published 2023).
Blank lines part the entries; values can stand above or below the compound they belong to.

Columns and labels:
[1] = target: T1, cathepsin X (Mus musculus, UniProt Q9WUU7); test: In vivo probe labeling in mice (intravenous), tissues analyzed by fluorescent SDS-PAGE; conditions: intravenous 50 nmol, two hours of circulation
T1 sequence (Q9WUU7 64-306): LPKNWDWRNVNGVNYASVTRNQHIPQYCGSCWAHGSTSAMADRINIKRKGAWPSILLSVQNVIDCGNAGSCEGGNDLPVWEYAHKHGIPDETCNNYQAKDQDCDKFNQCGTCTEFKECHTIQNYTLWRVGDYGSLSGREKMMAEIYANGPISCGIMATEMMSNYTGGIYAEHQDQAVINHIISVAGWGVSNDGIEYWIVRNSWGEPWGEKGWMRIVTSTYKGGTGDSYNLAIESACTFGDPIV
Method: For in vivo labeled tissues, mice were first injected intravenously via the tail vein with sCy5-Nle-SY, BMV109, or sCy5-Nle-AOMK (50 nmol in 100 µl 10% DMSO/PBS or vehicle control). Tissues were harvested and analyzed as above except without further probe addition.
In Example 10, the probe sCy5-Nle-SY, vehicle control/no probe (NP) or BMV109 were injected into mice intravenously. After two hours of circulation, tissues were harvested, lysed, and analyzed for probe labeling by fluorescent SDS-PAGE.
In Example 12, the AOMK probe sCy5-Nle-AOMK was tested in vivo and its labeling in tissues was analyzed. The probe was injected into mice intravenously. After two hours of circulation, tissues were harvested, lysed, and analyzed for probe labeling by fluorescent SDS-PAGE.

[2] = target: T1, cathepsin X; test: Probe labeling of mouse splenic lysates (wildtype or cathepsin X-deficient), in-gel fluorescence; assay type: biochemical; conditions: probe 1 µM for 20 minutes
Method: (§1) issues were harvested from healthy mice and snap frozen. At the time of analysis, lysis buffer was added at 10x volume:weight, and tissues were sonicated on ice. Cleared lysates were labeled with the indicated probe and analyzed as above.
In Example 4, the ability of sCy5-Val-SY to label cathepsin X in mouse splenic lysates (from wildtype mice or cathepsin X-deficient mice) was tested (probe addition at 1 µM for 20 minutes).

[3] = target: T1, cathepsin X; test: Probe labeling of kidney lysates, in-gel fluorescence; assay type: biochemical; conditions: 0.1-5 µM for 20 minutes
Method: as §1
In Example 7, sulfoxonium ylide probes as prepared in accordance with Example 1 were tested in kidney lysates and the results compared to BMV109. The sulfoxonium ylide probes (and BMV109) were each added with increasing probe concentrations of 0.1 µM, 0.5 µM, 1 µM and 5 µM for 20 minutes.

[4] = target: T1, cathepsin X; test: Probe labeling of living RAW264.7 cells, in-gel fluorescence; assay type: cell-based; design: protein lysates prepared from RAW264.7 cells; host or cells: RAW264.7; conditions: Example 8; 0.1-5 µM for 2 hours
Method: AW cells or MDA-MB-231 ^HM cells were plated in 12-well plates. Where indicated, MDV-590 or vehicle was added at 10 µM from a 10 mM DMSO stock for overnight incubation. When the cell density reached 80%, the indicated probes were added at the indicated concentrations from a 1000x DMSO stock and allowed to incubate for the indicated time. Media was then removed and replaced with PBS. The cells were then scraped and transferred to tubes, and lysis and SDS-PAGE analysis were carried out as above, except skipping the probe addition step. […]
In Example 8, sulfoxonium ylide probes as prepared in accordance with Example 1 were applied to live RAW264.7 cells for two hours, in order to examine the potency and permeability of the sulfoxonium ylide probe series in living cells, and the results compared to BMV109.
The sulfoxonium ylide probes (and BMV109) were each added with increasing probe concentrations of 0.1 µM, 0.5 µM, 1 µM and 5 µM for 2 hours. […]

[5] = target: T1, cathepsin X; test: Inhibition in live RAW264.7 cells, residual activity by sCy5-Val-SY labeling; assay type: cell-based; design: protein lysates prepared from RAW264.7 cells; host or cells: RAW264.7; conditions: 100 µM overnight pre-treatment, compared to controls
Method: To test the ability of sulfoxonium ylide compounds to act as cathepsin inhibitors, an unlabeled, boc-protected version of Val-SY, i.e. tert-butyl (S)-(1-(dimethyl(oxo)-λ ^6-sulfanylidene)-4-methyl-2-oxopentan-3-yl)carbamate (SJM-724-24) was used. Live RAW264.7 cells were pre-treated with Boc-Val-SY (0, 10 or 100 µM) overnight. Residual cathepsin X activity was measured by incubating the live cells with sCy5-Val-SY for two hours. Cells were lysed and labeled proteins were detected by in-gel fluorescence.

[6] = target: T2, cathepsin S (Mus musculus, UniProt O70370); test: as above; assay type: cell-based; conditions: 100 µM overnight pre-treatment, compared to controls
T2 construct: Live RAW264.7 cells were pre-treated with Boc-Val-SY (0, 10 or 100 µM) overnight; host or cells: RAW264.7

[7] = target: T1, cathepsin X; test: Probe labeling of RAW264.7 cell lysates, SDS-PAGE in-gel fluorescence; assay type: biochemical; design: protein lysates prepared from RAW264.7 cells; host or cells: RAW264.7
Method: ells were harvested by scraping, washed once with PBS, and resuspended in lysis buffer containing 50 mM citrate [pH 5.5], 0.5% CHAPS, 0.1% Triton X-100, and 4 mM DTT. Cells were incubated on ice for at least 10 minutes with intermittent vortexing followed by centrifugation ([…] at 4° C. or 5 minutes). Cleared supernatants were then transferred to a fresh tube and protein concentration was determined by BCA. Total protein (50 µg) was aliquoted into tubes in a final volume of 20 µl lysis buffer. Where indicated, JPM-OEt or MDV-590 were added from a 100x DMSO stock and incubated at 37° C. or 20 minutes prior to probe addition. The indicated concentration of probe was added from a 100x DMSO stock. Labeling was carried out at 37° C. or 20 minutes (unless otherwise indicated), and the reactions were quenched by the addition of 5x sample buffer (200 mM Tris-Cl [pH 6.8], 8% SDS, 0.04% bromophenol blue, 5% b-mercaptoethanol, and 40% glycerol). Samples were then boiled for five minutes and proteins were resolved on a 15% SDS-PAGE gel. The gels were scanned on a Typhoon 5 flatbed laser scanner at 633/670 nm excitation/emission to detect sCy5 fluorescence.
robe-labeled lysate from above (in sample buffer) was divided into input or pulldown (~50 µg total protein each). The input sample was stored at -20° C. The pulldown sample was diluted in 500 µl IP buffer (PBS [pH 7.4],[…], 1 mM EDTA). Goat anti-cathepsin X antibody (10 µl) was added along with 40 µl slurry of pre-washed Protein A/G agarose beads. Samples were rotated overnight at 4° C. Beads were then washed four times with IP buffer followed by a final wash in 0.9% NaCl. Beads were then resuspended in 2x sample buffer and boiled. The pulldown supernatants, alongside the input samples, were analysed by fluorescent SDS-PAGE as above.
In Example 3, the sulfoxonium ylide probe sCy5-Val-SY was incubated with protein lysates prepared from RAW264.7 cells, an immortalized mouse macrophage line that contains high levels of active cysteine cathepsins (Verdoes et al., 2013). Cells were lysed in citrate buffer (pH 5.5) to provide optimal conditions for cathepsin activation, and the probe was added • at 1 µM for 20 minutes • at various concentrations (0 µM, 0.01 µM, 0.05 µM, 0.1 µM, 0.5 µM or 1 µM) for 20 minutes; or • at 1 µM for varying times (0, 1, 2, 5, 10, 20, and 30 minutes).
Then the lysates were resolved by SDS-PAGE and the gel scanned for sCy5 fluorescence using a flatbed laser scanner.
The labeling profile of sCy5-Val-SY was compared to that of BMV109, the pan-cathepsin probe, by repeating the above experiment using BMV109 as the probe added at 1 µM for 20 minutes.
In Example 6, a small library of sulfoxonium ylide probes with varying amino acids in the P1 position as prepared in accordance with Example 1 was tested in RAW264.7 lysates, and compared to BMV109. Each probe was added with increasing probe concentrations of 0.01 µM, 0.05 µM, 0.1 µM, 0.5 µM, 1 µM and 5 µM for 20 minutes).

[8] = target: cathepsin X (Homo sapiens, UniProt Q9UBR2); test: Probe labeling of live MDA-MB-231 HM cells, in-gel fluorescence; assay type: cell-based; design: cathepsin X in a human breast cancer line known to express very low levels of cathepsin S; host or cells: MDA-MB-231 HM; conditions: 0.1-5 µM, overnight incubation
Chain of cathepsin X (Homo sapiens, UniProt Q9UBR2) (Q9UBR2 62-303): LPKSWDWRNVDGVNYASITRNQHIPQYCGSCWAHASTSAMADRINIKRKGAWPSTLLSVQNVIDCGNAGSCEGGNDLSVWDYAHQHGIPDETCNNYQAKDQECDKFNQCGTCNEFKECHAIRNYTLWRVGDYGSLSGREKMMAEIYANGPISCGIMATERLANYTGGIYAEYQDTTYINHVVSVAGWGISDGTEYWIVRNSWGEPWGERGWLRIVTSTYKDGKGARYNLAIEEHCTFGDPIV
Method: AW cells or MDA-MB-231 ^HM cells were plated in 12-well plates. Where indicated, MDV-590 or vehicle was added at 10 µM from a 10 mM DMSO stock for overnight incubation. When the cell density reached 80%, the indicated probes were added at the indicated concentrations from a 1000x DMSO stock and allowed to incubate for the indicated time. Media was then removed and replaced with PBS. The cells were then scraped and transferred to tubes, and lysis and SDS-PAGE analysis were carried out as above, except skipping the probe addition step.
In Example 9, the specificity of the sulfoxonium ylide probes for cathepsin X in a human breast cancer line known to express very low levels of cathepsin S, MDA-MB-231 ^HM (Chang et al., 2007) was tested, and the results compared to BMV109. The MDA-MB-231 ^HM cells also allowed to test whether the sulfoxonium ylide probes could bind to human cathepsin X (in addition to mouse cathepsin X shown previously).
The sulfoxonium ylide probes (and BMV109) were each added with increasing probe concentrations of 0.1 µM, 0.5 µM, 1 µM and 5 µM).

[9] = Example 6, 0.01-5 µM for 20 minutes

Compound: CC[N+]1=C(/C=C/C=C/C=C2\N(CCCCCC(=O)NCCCC[C@H](NC(=O)[C@H](Cc3ccccc3)NC(=O)OCc3ccccc3)C(=O)COc3c(F)c(F)c(C(=O)NCCNC(=O)C4CCN(S(=O)(=O)c5ccccc5-c5c6ccc(N7CCc8cc(S(=O)(=O)[O-])ccc87)cc6[o+]c6cc(N7CCc8cc(S(=O)(=O)O)ccc87)ccc56)CC4)c(F)c3F)c3ccc(S(=O)(=O)O)cc3C2(C)C)C(C)(C)c2cc(S(=O)(=O)[O-])ccc21 [BMV109, reference compound]
labeling of cathepsin S, B and L in tissues after in vivo administration [1]: strongly labels cathepsin B and L
labeling in splenic lysates from wildtype mice [2]: strongly labeled cathepsin B and to a lesser extent, cathepsin S and L

Compound: CC(C)[C@H](NC(=O)OC(C)(C)C)C(=O)C=S(C)(C)=O [Boc-Val-SY, tert-butyl (S)-(1-(dimethyl(oxo)-λ^6-sulfanylidene)-4-methyl-2-oxopentan-3-yl)carbamate]
reduction in cathepsin X [5]: 71%
reduction in cathepsin S [6]: 51%

Compound: CCCC[C@H](NC(=O)CCCCN1/C(=C/C=C/C=C/C2=[N+](CC)c3ccc(S(=O)(=O)[O-])cc3C2(C)C)C(C)(C)c2cc(S(=O)(=O)O)ccc21)C(=O)COC(=O)c1c(C)cccc1C [sCy5-Nle-AOMK]
labeling of cathepsin S, B and L in tissues after in vivo administration [1]: Only weak labeling of cathepsin B and S was observed in the colon, but not in other tissues examined

Compound: CC[N+]1=C(/C=C/C=C/C=C2/N(CCCCCC(=O)N[C@@H](Cc3c[nH]c4ccccc34)C(=O)C=S(C)(C)=O)c3ccc(S(=O)(=O)O)cc3C2(C)C)C(C)(C)c2cc(S(=O)(=O)[O-])ccc21 [sCy5-Trp-SY]
cathepsins labeled in live RAW264.7 cells [4]: labeled cathepsin X and S to similar extents and with similar potency

Compound: CC[N+]1=C(/C=C/C=C/C=C2/N(CCCCCC(=O)N[C@@H](CC(C)C)C(=O)C=S(C)(C)=O)c3ccc(S(=O)(=O)O)cc3C2(C)C)C(C)(C)c2cc(S(=O)(=O)[O-])ccc21 [sCy5-Leu-SY]
potency and specificity of labeling in kidney lysates [3]: the most potency and specificity for cathepsin X
cathepsins labeled in live RAW264.7 cells [4]: labeled cathepsin X and S to similar extents and with similar potency

More lines, main results first:

potency and specificity of labeling in kidney lysates [3]: broader reactivity
Compound: CC[N+]1=C(/C=C/C=C/C=C2/N(CCCCCC(=O)N[C@@H](Cc3ccccc3)C(=O)C=S(C)(C)=O)c3ccc(S(=O)(=O)O)cc3C2(C)C)C(C)(C)c2cc(S(=O)(=O)[O-])ccc21 [sCy5-Phe-SY]
cathepsins labeled in live RAW264.7 cells [4]: labeled cathepsin X and S to similar extents and with similar potency

competition for sCy5-Val-SY labeling by inhibitor pretreatment ([7]; RAW264.7 lysates pretreated with 10 µM inhibitor, then sCy5-Val-SY 1 µM 20 minutes): labeling was prevented
Compound: JPM-OEt [reference compound]

potency and specificity of labeling in kidney lysates [3]: broader reactivity
specificity of labeling in RAW264.7 lysates [7, 9]: loss of specificity
Compound: CC[N+]1=C(/C=C/C=C/C=C2/N(CCCCCC(=O)N[C@@H](Cc3ccccc3)C(=O)N[C@H](C(=O)C=S(C)(C)=O)C(C)C)c3ccc(S(=O)(=O)O)cc3C2(C)C)C(C)(C)c2cc(S(=O)(=O)[O-])ccc21 [sCy5-Phe-Val-SY]
cathepsins labeled in live RAW264.7 cells [4]: labeled cathepsin B and L in addition to cathepsin X and S
potency of labeling in RAW264.7 lysates [7, 9]: improved potencies for cathepsin X and S compared to BMV109
cross-reactivity with cathepsin B and L in live MDA-MB-231 HM cells [8]: the most cross-reactivity with cathepsin B and L

potency and specificity of labeling in kidney lysates [3]: broader reactivity
cathepsins labeled in live RAW264.7 cells [4]: preference for cathepsin S
Compound: CC[N+]1=C(/C=C/C=C/C=C2/N(CCCCCC(=O)NCCCC[C@H](NC(=O)OCc3ccccc3)C(=O)C=S(C)(C)=O)c3ccc(S(=O)(=O)O)cc3C2(C)C)C(C)(C)c2cc(S(=O)(=O)[O-])ccc21 [Cbz-Lys(sCy5)-SY]
specificity of labeling in RAW264.7 lysates [7, 9]: loss of specificity, favoring cathepsin S over X and B
cross-reactivity with cathepsin B and L in live MDA-MB-231 HM cells [8]: the most cross-reactivity with cathepsin B and L
